In patent US20240279230A1, “CRYSTALLINE FORMS OF A HER2 INHIBITOR” (Boehringer Ingelheim International GmbH, priority 2022, published 2024):
Entries after “also recorded” stand apart in the source; their conditions may differ.

Legend:
Type in all cases: physicochemical
[1] = Chemical stability of solid state forms under temperature/humidity stress, related substances by HPLC at 252 nm; design: Impurity I / Impurity A / Impurity B / Impurity C / Impurity D / Impurity E / Impurity F / Impurity G / Impurity H: unit not given here
Description: To do so, control samples are stored refrigerated in the presence of desiccant for the duration of the study and measured simultaneously with stressed samples by HPLC at a wavelength of 252 nm.

[2] = Thermogravimetric Analysis (TGA); settings: 20° C./min
Procedure: The methodology for this can be as follows. Solid compounds (˜5 mg) are placed in an aluminium pan and sealed. The instrument used for the analysis is a TA Instruments TGA 550. The same sample lots from DSC testing are used for TGA testing. Processing is completed using TRIOS software.

[3] = Dynamic Vapor Sorption (DVS) sorption isotherms, hygroscopic behaviour; settings: for Hygroscopicity: DVS classification; for Δm (0-80%), moisture absorbed at 80% RH / Δm (0-90%), maximum water uptake: DVS, 25.0 ±1.0° C.; for Δm (0-90%), maximum water uptake: up to 90% RH; for Hysteresis: between sorption and desorption curves
Procedure: The methodology for this can be as follows. The mass of the solids is monitored as the relative humidity (RH) was deliberately changed. The RH is cycled twice from 0% to 90% to 0% in 10% steps. The temperature during measurement is kept constantly at (25.0 ±1.0° C.) Each step is held until mass stability was achieved. A camera inside the instrument captured an image at the conclusion of each stage, allowing for the observation of any visual changes in the solid form during the analysis.

[4] = Polymorphic stability of form III and form IV under stress storage, PXRD; settings: 21 days
Procedure: A Bruker D2 Phaser X-Ray Diffractometer (XRD, EQ-SSRD-XRD-01) can be used for characterizing the samples. Raw results are evaluated using DIFFRAC.EVA (Bruker, V5.0) software. The Kα2 contribution was stripped, and a peak search was performed using peak search parameters (width 0.302 and threshold 1.0).
A test sample (approximately 0.3 g) is representatively subsampled into an agate-type mortar and pestle. Sample is ground for approximately one minute to achieve a fine homogenous powder. Sample is then transferred into a stainless-steel sample holder fitted with a zero-diffraction plate (ZDP). The sample holder is then levelled off with a glass slide to create a flat sample surface level with the sample holder.

[5] = Control 1, stored refrigerated with desiccant
[6] = Control 2, stored refrigerated with desiccant
[7] = Control 3, stored refrigerated with desiccant

Color change after stressing ([1]; 60-90° C., 3-79% RH, up to 21 days): No color changes | Impurity A ([1]; 60° C./75% RH, 21 days): 0.067 | Impurity B ([1]; 60° C./75% RH, 21 days): 0.012 | Impurity C ([1]; 60° C./75% RH, 21 days): 0.023 | Impurity D ([1]; 60° C./75% RH, 21 days): 0.134 | Impurity E ([1]; 60° C./75% RH, 21 days): 0.057 | Impurity F ([1]; 60° C./75% RH, 21 days): 0 | Impurity G ([1]; 60° C./75% RH, 21 days): 0.019 | Impurity H ([1]; 60° C./75% RH, 21 days): 0.140 | Impurity I ([1]; 60° C./75% RH, 21 days): 0.014 | Impurity A ([1]; 70° C./62% RH, 21 days): 0.064 | Impurity B ([1]; 70° C./62% RH, 21 days): 0.012 | Impurity C ([1]; 70° C./62% RH, 21 days): 0.024 | Impurity D ([1]; 70° C./62% RH, 21 days): 0.119 | Impurity E ([1]; 70° C./62% RH, 21 days): 0.059 | Impurity F ([1]; 70° C./62% RH, 21 days): 0.006 | Impurity G ([1]; 70° C./62% RH, 21 days): 0.019 | Impurity H ([1]; 70° C./62% RH, 21 days): 0.139 | Impurity I ([1]; 70° C./62% RH, 21 days): 0.015 | Impurity A ([1]; 75° C./41% RH, 21 days): 0.066 | Impurity B ([1]; 75° C./41% RH, 21 days): 0.011 | Impurity C ([1]; 75° C./41% RH, 21 days): 0.025 | Impurity D ([1]; 75° C./41% RH, 21 days): 0.118 | Impurity E ([1]; 75° C./41% RH, 21 days): 0.062 | Impurity F ([1]; 75° C./41% RH, 21 days): 0.009 | Impurity G ([1]; 75° C./41% RH, 21 days): 0.019 | Impurity H ([1]; 75° C./41% RH, 21 days): 0.136 | Impurity I ([1]; 75° C./41% RH, 21 days): 0.010 | Impurity A ([1]; 75° C./79% RH, 17 days): 0.066 | Impurity B ([1]; 75° C./79% RH, 17 days): 0.012 | Impurity C ([1]; 75° C./79% RH, 17 days): 0.031 | Impurity D ([1]; 75° C./79% RH, 17 days): 0.106 | Impurity E ([1]; 75° C./79% RH, 17 days): 0.074 | Impurity F ([1]; 75° C./79% RH, 17 days): 0 | Impurity G ([1]; 75° C./79% RH, 17 days): 0.005 | Impurity H ([1]; 75° C./79% RH, 17 days): 0.135 | Impurity I ([1]; 75° C./79% RH, 17 days): 0.015 | Impurity A ([1]; 80° C./11% RH, 21 days): 0.066 | Impurity B ([1]; 80° C./11% RH, 21 days): 0.011 | Impurity C ([1]; 80° C./11% RH, 21 days): 0.025 | Impurity D ([1]; 80° C./11% RH, 21 days): 0.123 | Impurity E ([1]; 80° C./11% RH, 21 days): 0.054 | Impurity F ([1]; 80° C./11% RH, 21 days): 0.007 | Impurity G ([1]; 80° C./11% RH, 21 days): 0.024 | Impurity H ([1]; 80° C./11% RH, 21 days): 0.141 | Impurity I ([1]; 80° C./11% RH, 21 days): 0.015 | Impurity A ([1]; 80° C./61% RH, 17 days): 0.052 | Impurity B ([1]; 80° C./61% RH, 17 days): 0.013 | Impurity C ([1]; 80° C./61% RH, 17 days): 0.024 | Impurity D ([1]; 80° C./61% RH, 17 days): 0.096 | Impurity E ([1]; 80° C./61% RH, 17 days): 0.060 | Impurity F ([1]; 80° C./61% RH, 17 days): 0.009 | Impurity G ([1]; 80° C./61% RH, 17 days): 0.020 | Impurity H ([1]; 80° C./61% RH, 17 days): 0.137 | Impurity I ([1]; 80° C./61% RH, 17 days): 0.015 | Impurity A ([1]; 90° C./3% RH, 21 days): 0.064 | Impurity B ([1]; 90° C./3% RH, 21 days): 0.012 | Impurity C ([1]; 90° C./3% RH, 21 days): 0.033 | Impurity D ([1]; 90° C./3% RH, 21 days): 0.087 | Impurity E ([1]; 90° C./3% RH, 21 days): 0.073 | Impurity F ([1]; 90° C./3% RH, 21 days): 0 | Impurity G ([1]; 90° C./3% RH, 21 days): 0.007 | Impurity H ([1]; 90° C./3% RH, 21 days): 0.140 | Impurity I ([1]; 90° C./3% RH, 21 days): 0.016 | Impurity A ([1]; 90° C./41% RH, 10 days): 0.066 | Impurity B ([1]; 90° C./41% RH, 10 days): 0.013 | Impurity C ([1]; 90° C./41% RH, 10 days): 0.025 | Impurity D ([1]; 90° C./41% RH, 10 days): 0.109 | Impurity E ([1]; 90° C./41% RH, 10 days): 0.060 | Impurity F ([1]; 90° C./41% RH, 10 days): 0 | Impurity G ([1]; 90° C./41% RH, 10 days): 0.022 | Impurity H ([1]; 90° C./41% RH, 10 days): 0.138 | Impurity I ([1]; 90° C./41% RH, 10 days): 0.013 | Impurity A ([1]; 90° C./78% RH, 21 days): 0.065 | Impurity B ([1]; 90° C./78% RH, 21 days): 0.011 | Impurity C ([1]; 90° C./78% RH, 21 days): 0.023 | Impurity D ([1]; 90° C./78% RH, 21 days): 0.112 | Impurity E ([1]; 90° C./78% RH, 21 days): 0.057 | Impurity F ([1]; 90° C./78% RH, 21 days): 0.006 | Impurity G ([1]; 90° C./78% RH, 21 days): 0.021 | Impurity H ([1]; 90° C./78% RH, 21 days): 0.133 | Impurity I ([1]; 90° C./78% RH, 21 days): 0.014 | Impurity A [1, 5]: 0.059 | Impurity B [1, 5]: 0.012 | Impurity C [1, 5]: 0.026 | Impurity D [1, 5]: 0.127 | Impurity E [1, 5]: 0.049 | Impurity F [1, 5]: 0.008 | Impurity G [1, 5]: 0.016 | Impurity H [1, 5]: 0.139 | Impurity I [1, 5]: 0.014 | Impurity A [1, 6]: 0.051 | Impurity B [1, 6]: 0.010 | Impurity C [1, 6]: 0.023 | Impurity D [1, 6]: 0.097 | Impurity E [1, 6]: 0.057 | Impurity F [1, 6]: 0.006 | Impurity G [1, 6]: 0.019 | Impurity H [1, 6]: 0.136 | Impurity I [1, 6]: 0.016 | Impurity A [1, 7]: 0.069 | Impurity B [1, 7]: 0.010 | Impurity C [1, 7]: 0.024 | Impurity D [1, 7]: 0.143 | Impurity E [1, 7]: 0.051 | Impurity F [1, 7]: 0.007 | Impurity G [1, 7]: 0.019 | Impurity H [1, 7]: 0.139 | Impurity I [1, 7]: 0.016 | Chemical stability in the solid state ([1]; up to 21 days at 90° C./78% RH): chemically very stable | TGA change in mass ([2]; Decomposition): 60.862% | TGA onset ([2]; Decomposition): 420.47 °C | TGA change in mass ([2]; Small mass loss event): 1.129% | TGA end ([2]; Small mass loss event): 240.02 °C | TGA onset ([2]; Small mass loss event): 231.13 °C | TGA change in mass ([2]; Small mass loss event, listed as form III): around 1% | Change in visual appearance during the humidity cycles ([3]; DVS camera images): No change in the visual appearance | Hygroscopicity [3]: slightly hygroscopic | Hygroscopicity ([3]; listed as form III): slightly hygroscopic | Δm (0-80%), moisture absorbed at 80% RH [3]: 1.2 wt % | Δm (0-80%), moisture absorbed at 80% RH ([3]; listed as form III): 1.2 wt % | Δm (0-90%), maximum water uptake [3]: 1.7 wt % | Δm (0-90%), maximum water uptake ([3]; listed as form III): 1.7 wt % | Hysteresis [3]: no | Hysteresis ([3]; listed as form III): lack of hysteresis | Polymorphic stability by PXRD ([4]; open storage 90° C./3% RH, listed as form III): neither form underwent phase changes | Polymorphic stability by PXRD ([4]; open storage 90° C./78% RH, listed as form III): neither form underwent phase changes
Compound: C=CC(=O)NC1CCN(c2ncc3ncnc(Nc4ccc(Oc5ccc6c(c5)ncn6C)c(C)c4)c3n2)CC1 [Form III, N-{1-[8-({3-methyl-4-[(1-methyl-1H-1,3-benzodiazol-5-yl)oxy]phenyl}amino)-[1,3]diazino[5,4-d]pyrimidin-2-yl]piperidin-4-yl}prop-2-enamide]
Increase in related substances ([1]; accelerated stress conditions, up to 21 days at 90° C./78% RH): no significant increase in any related substance | Phase change during DVS experiment ([3]; RH cycled twice 0% to 90% to 0%): no indication of irreversible phase conversion or hydrate formation; also recorded: no irreversible phase changes | Polymorphic stability by PXRD ([4]; open storage 90° C./3% RH): stable and conformed to form III reference standard | Polymorphic stability by PXRD ([4]; open storage 90° C./78% RH): stable and conformed to form III reference standard
